Measured values published in patent US11572399B2, “Long-acting GIP peptide analogues” (University of Copenhagen, priority 2017, dated 2023).
Peptide text beside a SMILES is read from it. * marks the point of attachment. C16 diacid = O=C(O)CCCCCCCCCCCCCCC(=O)*

Target: T1, human GIP receptor (Homo sapiens, UniProt P48546)
T1 construct: host or cells: COS-7, transient transfection (calcium phosphate), cDNA in pCMV-Script
T1 sequence (P48546 22-466): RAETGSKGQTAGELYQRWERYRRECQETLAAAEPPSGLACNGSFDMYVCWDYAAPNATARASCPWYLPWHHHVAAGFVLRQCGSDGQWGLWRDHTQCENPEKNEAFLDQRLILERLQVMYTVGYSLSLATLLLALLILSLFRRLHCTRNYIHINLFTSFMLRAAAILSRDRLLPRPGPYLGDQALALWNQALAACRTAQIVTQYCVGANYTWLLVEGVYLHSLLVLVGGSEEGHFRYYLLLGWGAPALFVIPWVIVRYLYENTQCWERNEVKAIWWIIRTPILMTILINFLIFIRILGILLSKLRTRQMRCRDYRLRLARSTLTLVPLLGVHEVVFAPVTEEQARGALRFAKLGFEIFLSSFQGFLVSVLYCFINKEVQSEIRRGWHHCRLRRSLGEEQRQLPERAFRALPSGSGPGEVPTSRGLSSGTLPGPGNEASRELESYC
Experiment: cAMP accumulation assay, agonism (ligand alone)
Type: cell-based
Details: COS-7 cells, Table 1; for Emax: COS-7, intrinsic cAMP activity; for EC50: read-out: cAMP agonism nM (EC50)
Description: COS-7 cells were cultured at 10% CO2 and 37° C. in Dulbecco's modified Eagle's medium 1885 supplemented with 10% fetal bovine serum, 2 mM glutamine, 180 units/ml penicillin, and 45 µg/ml streptomycin. Transient transfection of the COS-7 cells for cAMP accumulation and competition binding was performed using the calcium phosphate precipitation method with the addition of chloroquine^46-47.
Transient transfected COS-7 cells expressing the human GIP receptor were seeded in white 96-well plates with a density of 3.5*10^4/well. The day after, the cells were washed twice with Hepes buffered saline (HBS) buffer and incubated with HBS and 1 mM 3-isobutyl-1-methylxanthine (IBMX) for 30 min at 37° C. To test for agonistic properties, ligands were added and incubated for 30 min at 37° C. In order to test for antagonistic properties, the cells were preincubated with the antagonists for 10 min prior to the addition of the agonist and subsequent incubated for 20 additional min. The HitHunter™ cAMP XS assay (DiscoveRx) was carried out according to the manufacturer's instructions.
IC50, EC50, and Ki values were determined by nonlinear regression. These were carried out with the GraphPad Prism 6.0 software (GraphPad, San Diego, Calif., USA) and Microsoft Excel™. Ki values were based on the formula for one class of binding sites in homologous competition binding studies and the Cheng Prussoffs formula, respectively (DeBlasi et al., 1989). To determine the HSA binding potential, the fold change in affinity (as determined by IC50) was calculated as IC50 (plus HSA)/IC50 (minus HSA).

Structure (SMILES)	cAMP agonism Emax (intrinsic cAMP activity)	Emax [%]	EC50 [nM]
CC[C@H](C)[C@H](NC(=O)[C@H](CO)NC(=O)[C@H](Cc1ccc(O)cc1)NC(=O)[C@H](CC(=O)O)NC(=O)[C@H](CO)NC(=O)[C@@H](NC(=O)[C@H](Cc1ccccc1)NC(=O)[C@@H](NC(=O)CNC(=O)[C@@H](N)CCC(=O)O)[C@@H](C)O)[C@@H](C)CC)C(=O)N[C@@H](C)C(=O)N[C@@H](CCSC)C(=O)N[C@@H](CC(=O)O)C(=O)N[C@@H](CCCCN)C(=O)N[C@H](C(=O)N[C@@H](Cc1c[nH]cn1)C(=O)N[C@@H](CCC(N)=O)C(=O)N[C@@H](CCCCNC(=O)CCCCCCCCCCCCCCC(=O)O)C(=O)N[C@@H](CC(=O)O)C(=O)N[C@@H](Cc1ccccc1)C(=O)N[C@H](C(=O)N[C@@H](CC(N)=O)C(=O)N[C@@H](Cc1c[nH]c2ccccc12)C(=O)N[C@@H](CC(C)C)C(=O)N[C@@H](CC(C)C)C(=O)N[C@@H](C)C(=O)N[C@@H](CCC(N)=O)C(=O)N[C@@H](CCCCN)C(N)=O)C(C)C)[C@@H](C)CC [AT309, [hGIP(3-30)NH2[Q20K]-C16diacid/20]] (H-EGTFISDYSIAMDKIHQK(C16 diacid)DFVNWLLAQK-NH2; N-terminus assumed)	no ag.	–	–
CC[C@H](C)[C@H](NC(=O)[C@H](CO)NC(=O)[C@H](Cc1ccc(O)cc1)NC(=O)[C@H](CC(=O)O)NC(=O)[C@H](CO)NC(=O)[C@@H](NC(=O)[C@H](Cc1ccccc1)NC(=O)[C@@H](NC(=O)CNC(=O)[C@@H](N)CCC(=O)O)[C@@H](C)O)[C@@H](C)CC)C(=O)N[C@@H](C)C(=O)N[C@@H](CCSC)C(=O)N[C@@H](CC(=O)O)C(=O)N[C@@H](CCCCN)C(=O)N[C@H](C(=O)N[C@@H](Cc1c[nH]cn1)C(=O)N[C@@H](CCC(N)=O)C(=O)N[C@@H](CCC(N)=O)C(=O)N[C@@H](CC(=O)O)C(=O)N[C@@H](CCCCNC(=O)CCCCCCCCCCCCCCC(=O)O)C(=O)N[C@H](C(=O)N[C@@H](CC(N)=O)C(=O)N[C@@H](Cc1c[nH]c2ccccc12)C(=O)N[C@@H](CC(C)C)C(=O)N[C@@H](CC(C)C)C(=O)N[C@@H](C)C(=O)N[C@@H](CCC(N)=O)C(=O)N[C@@H](CCCCN)C(N)=O)C(C)C)[C@@H](C)CC [AT311, [hGIP(3-30)NH2[F22K]-C16diacid/22]] (H-EGTFISDYSIAMDKIHQQDK(C16 diacid)VNWLLAQK-NH2; N-terminus assumed)	–	17.5	–
CC[C@H](C)[C@H](NC(=O)[C@H](CO)NC(=O)[C@H](Cc1ccc(O)cc1)NC(=O)[C@H](CC(=O)O)NC(=O)[C@H](CO)NC(=O)[C@@H](NC(=O)[C@H](Cc1ccccc1)NC(=O)[C@@H](NC(=O)CNC(=O)[C@@H](N)CCC(=O)O)[C@@H](C)O)[C@@H](C)CC)C(=O)N[C@@H](C)C(=O)N[C@@H](CCSC)C(=O)N[C@@H](CC(=O)O)C(=O)N[C@@H](CCCCN)C(=O)N[C@H](C(=O)N[C@@H](Cc1c[nH]cn1)C(=O)N[C@@H](CCC(N)=O)C(=O)N[C@@H](CCC(N)=O)C(=O)N[C@@H](CC(=O)O)C(=O)N[C@@H](Cc1ccccc1)C(=O)N[C@@H](CCCCNC(=O)CCCCCCCCCCCCCCC(=O)O)C(=O)N[C@@H](CC(N)=O)C(=O)N[C@@H](Cc1c[nH]c2ccccc12)C(=O)N[C@@H](CC(C)C)C(=O)N[C@@H](CC(C)C)C(=O)N[C@@H](C)C(=O)N[C@@H](CCC(N)=O)C(=O)N[C@@H](CCCCN)C(N)=O)[C@@H](C)CC [AT312, [hGIP(3-30)NH2[V23K]-C16diacid/23]] (H-EGTFISDYSIAMDKIHQQDFK(C16 diacid)NWLLAQK-NH2; N-terminus assumed)	–	54	–
CC[C@H](C)[C@H](NC(=O)[C@H](CO)NC(=O)[C@H](Cc1ccc(O)cc1)NC(=O)[C@H](CC(=O)O)NC(=O)[C@H](CO)NC(=O)[C@@H](NC(=O)[C@H](Cc1ccccc1)NC(=O)[C@@H](NC(=O)CNC(=O)[C@@H](N)CCC(=O)O)[C@@H](C)O)[C@@H](C)CC)C(=O)N[C@@H](C)C(=O)N[C@@H](CCSC)C(=O)N[C@@H](CC(=O)O)C(=O)N[C@@H](CCCCN)C(=O)N[C@H](C(=O)N[C@@H](Cc1c[nH]cn1)C(=O)N[C@@H](CCC(N)=O)C(=O)N[C@@H](CCC(N)=O)C(=O)N[C@@H](CC(=O)O)C(=O)N[C@@H](Cc1ccccc1)C(=O)N[C@H](C(=O)N[C@@H](CCCCNC(=O)CCCCCCCCCCCCCCC(=O)O)C(=O)N[C@@H](Cc1c[nH]c2ccccc12)C(=O)N[C@@H](CC(C)C)C(=O)N[C@@H](CC(C)C)C(=O)N[C@@H](C)C(=O)N[C@@H](CCC(N)=O)C(=O)N[C@@H](CCCCN)C(N)=O)C(C)C)[C@@H](C)CC [AT313, [hGIP(3-30)NH2[N24K]-C16diacid/24]] (H-EGTFISDYSIAMDKIHQQDFVK(C16 diacid)WLLAQK-NH2; N-terminus assumed)	–	7.2	–
CC[C@H](C)[C@H](NC(=O)[C@H](CO)NC(=O)[C@H](Cc1ccc(O)cc1)NC(=O)[C@H](CC(=O)O)NC(=O)[C@H](CO)NC(=O)[C@@H](NC(=O)[C@H](Cc1ccccc1)NC(=O)[C@@H](NC(=O)CNC(=O)[C@@H](N)CCC(=O)O)[C@@H](C)O)[C@@H](C)CC)C(=O)N[C@@H](C)C(=O)N[C@@H](CCSC)C(=O)N[C@@H](CC(=O)O)C(=O)N[C@@H](CCCCN)C(=O)N[C@H](C(=O)N[C@@H](Cc1c[nH]cn1)C(=O)N[C@@H](CCC(N)=O)C(=O)N[C@@H](CCC(N)=O)C(=O)N[C@@H](CC(=O)O)C(=O)N[C@@H](Cc1ccccc1)C(=O)N[C@H](C(=O)N[C@@H](CC(N)=O)C(=O)N[C@@H](CCCCNC(=O)CCCCCCCCCCCCCCC(=O)O)C(=O)N[C@@H](CC(C)C)C(=O)N[C@@H](CC(C)C)C(=O)N[C@@H](C)C(=O)N[C@@H](CCC(N)=O)C(=O)N[C@@H](CCCCN)C(N)=O)C(C)C)[C@@H](C)CC [AT314, [hGIP(3-30)NH2[W25K]-C16diacid/25]] (H-EGTFISDYSIAMDKIHQQDFVNK(C16 diacid)LLAQK-NH2; N-terminus assumed)	–	28.4	62
CC[C@H](C)[C@H](NC(=O)[C@H](CO)NC(=O)[C@H](Cc1ccc(O)cc1)NC(=O)[C@H](CC(=O)O)NC(=O)[C@H](CO)NC(=O)[C@@H](NC(=O)[C@H](Cc1ccccc1)NC(=O)[C@@H](NC(=O)CNC(=O)[C@@H](N)CCC(=O)O)[C@@H](C)O)[C@@H](C)CC)C(=O)N[C@@H](C)C(=O)N[C@@H](CCSC)C(=O)N[C@@H](CC(=O)O)C(=O)N[C@@H](CCCCN)C(=O)N[C@H](C(=O)N[C@@H](Cc1c[nH]cn1)C(=O)N[C@@H](CCC(N)=O)C(=O)N[C@@H](CCC(N)=O)C(=O)N[C@@H](CC(=O)O)C(=O)N[C@@H](Cc1ccccc1)C(=O)N[C@H](C(=O)N[C@@H](CC(N)=O)C(=O)N[C@@H](Cc1c[nH]c2ccccc12)C(=O)N[C@@H](CCCCNC(=O)CCCCCCCCCCCCCCC(=O)O)C(=O)N[C@@H](CC(C)C)C(=O)N[C@@H](C)C(=O)N[C@@H](CCC(N)=O)C(=O)N[C@@H](CCCCN)C(N)=O)C(C)C)[C@@H](C)CC [AT315, [hGIP(3-30)NH2[L26K]-C16diacid/26]] (H-EGTFISDYSIAMDKIHQQDFVNWK(C16 diacid)LAQK-NH2; N-terminus assumed)	–	5.9	183
CC[C@H](C)[C@H](NC(=O)[C@H](CO)NC(=O)[C@H](Cc1ccc(O)cc1)NC(=O)[C@H](CC(=O)O)NC(=O)[C@H](CO)NC(=O)[C@@H](NC(=O)[C@H](Cc1ccccc1)NC(=O)[C@@H](NC(=O)CNC(=O)[C@@H](N)CCC(=O)O)[C@@H](C)O)[C@@H](C)CC)C(=O)N[C@@H](C)C(=O)N[C@@H](CCSC)C(=O)N[C@@H](CC(=O)O)C(=O)N[C@@H](CCCCN)C(=O)N[C@H](C(=O)N[C@@H](Cc1c[nH]cn1)C(=O)N[C@@H](CCC(N)=O)C(=O)N[C@@H](CCC(N)=O)C(=O)N[C@@H](CC(=O)O)C(=O)N[C@@H](Cc1ccccc1)C(=O)N[C@H](C(=O)N[C@@H](CC(N)=O)C(=O)N[C@@H](Cc1c[nH]c2ccccc12)C(=O)N[C@@H](CC(C)C)C(=O)N[C@@H](CCCCNC(=O)CCCCCCCCCCCCCCC(=O)O)C(=O)N[C@@H](C)C(=O)N[C@@H](CCC(N)=O)C(=O)N[C@@H](CCCCN)C(N)=O)C(C)C)[C@@H](C)CC [AT316, [hGIP(3-30)NH2[L27K]-C16diacid/27]] (H-EGTFISDYSIAMDKIHQQDFVNWLK(C16 diacid)AQK-NH2; N-terminus assumed)	–	6.2	–
